Measurements taken from ChEMBL document CHEMBL1250451, “Mechanistic insights into a Ca2+-dependent family of alpha-mannosidases in a human gut symbiont” (Nat Chem Biol, 2010).
Calls of active or inactive are those of the source. The calls are words filed in the database; no cut-off is given here.

Tests used:
Assay type in all cases: protein assay
[1] = target: T1, Alpha-1,2-mannosidase, putative (BT_3130) (Bacteroides thetaiotaomicron) (UniProt Q8A325); assay: Activity of Bacteroides thetaiotaomicron GH92 alpha-mannosidase GH92 alpha-mannosidase 3130 assessed as mannose release at 1 mM after 16 hrs by HPLC relative to untreated control after 16 hrs by HPLC
T1 sequence (whole entry): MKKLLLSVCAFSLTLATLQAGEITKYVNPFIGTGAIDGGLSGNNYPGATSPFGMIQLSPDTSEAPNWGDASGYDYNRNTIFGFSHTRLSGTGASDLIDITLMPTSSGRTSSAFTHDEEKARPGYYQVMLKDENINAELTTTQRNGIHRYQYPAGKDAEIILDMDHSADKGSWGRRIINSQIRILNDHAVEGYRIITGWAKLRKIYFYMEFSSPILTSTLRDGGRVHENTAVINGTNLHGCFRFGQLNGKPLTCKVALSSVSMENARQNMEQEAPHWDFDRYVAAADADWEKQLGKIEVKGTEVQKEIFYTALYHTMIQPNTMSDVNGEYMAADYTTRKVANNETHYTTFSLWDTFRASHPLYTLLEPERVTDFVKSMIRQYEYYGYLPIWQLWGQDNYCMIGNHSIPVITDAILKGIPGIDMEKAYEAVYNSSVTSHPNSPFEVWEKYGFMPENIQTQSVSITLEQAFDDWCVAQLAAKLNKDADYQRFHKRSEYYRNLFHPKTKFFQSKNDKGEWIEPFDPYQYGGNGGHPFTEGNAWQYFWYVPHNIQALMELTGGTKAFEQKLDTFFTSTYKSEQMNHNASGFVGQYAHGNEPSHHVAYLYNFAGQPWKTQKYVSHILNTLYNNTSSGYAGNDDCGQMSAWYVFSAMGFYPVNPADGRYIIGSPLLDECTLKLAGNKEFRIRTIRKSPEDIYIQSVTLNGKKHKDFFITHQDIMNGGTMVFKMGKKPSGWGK

[2] = target: T2, Alpha-1,2-mannosidase (BT_1769) (Bacteroides thetaiotaomicron) (UniProt Q8A6V7); assay: Activity of Bacteroides thetaiotaomicron GH92 alpha-mannosidase GH92 alpha-mannosidase 1769 assessed as mannose release at 1 mM after 16 hrs by HPLC relative to untreated control after 16 hrs by HPLC
T2 sequence (whole entry): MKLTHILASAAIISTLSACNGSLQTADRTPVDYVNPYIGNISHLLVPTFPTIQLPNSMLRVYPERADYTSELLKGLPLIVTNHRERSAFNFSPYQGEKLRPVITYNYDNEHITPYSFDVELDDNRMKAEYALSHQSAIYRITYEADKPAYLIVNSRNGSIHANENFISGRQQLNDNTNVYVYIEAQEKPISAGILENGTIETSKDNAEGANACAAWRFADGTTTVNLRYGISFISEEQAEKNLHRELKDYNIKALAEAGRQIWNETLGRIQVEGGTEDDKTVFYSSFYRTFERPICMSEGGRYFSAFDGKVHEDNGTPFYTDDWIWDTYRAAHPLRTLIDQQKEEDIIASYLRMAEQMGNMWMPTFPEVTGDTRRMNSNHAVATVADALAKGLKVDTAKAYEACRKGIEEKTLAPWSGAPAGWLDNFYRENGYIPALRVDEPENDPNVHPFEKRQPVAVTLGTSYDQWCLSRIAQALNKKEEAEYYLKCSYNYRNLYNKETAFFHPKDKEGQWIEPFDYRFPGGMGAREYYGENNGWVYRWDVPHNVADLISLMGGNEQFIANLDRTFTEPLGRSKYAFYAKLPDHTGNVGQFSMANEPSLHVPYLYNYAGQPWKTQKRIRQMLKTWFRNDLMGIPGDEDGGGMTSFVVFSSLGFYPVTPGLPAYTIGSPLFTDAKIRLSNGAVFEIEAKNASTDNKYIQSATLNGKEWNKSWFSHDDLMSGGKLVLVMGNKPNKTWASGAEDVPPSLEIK

[3] = target: T3, Alpha-1,2-mannosidase (BT_2199) (Bacteroides thetaiotaomicron) (UniProt Q8A5N9); assay: Activity of Bacteroides thetaiotaomicron GH92 alpha-mannosidase GH92 alpha-mannosidase 2199 assessed as mannose release at 1 mM after 16 hrs by HPLC relative to untreated control after 16 hrs by HPLC
T3 sequence (whole entry): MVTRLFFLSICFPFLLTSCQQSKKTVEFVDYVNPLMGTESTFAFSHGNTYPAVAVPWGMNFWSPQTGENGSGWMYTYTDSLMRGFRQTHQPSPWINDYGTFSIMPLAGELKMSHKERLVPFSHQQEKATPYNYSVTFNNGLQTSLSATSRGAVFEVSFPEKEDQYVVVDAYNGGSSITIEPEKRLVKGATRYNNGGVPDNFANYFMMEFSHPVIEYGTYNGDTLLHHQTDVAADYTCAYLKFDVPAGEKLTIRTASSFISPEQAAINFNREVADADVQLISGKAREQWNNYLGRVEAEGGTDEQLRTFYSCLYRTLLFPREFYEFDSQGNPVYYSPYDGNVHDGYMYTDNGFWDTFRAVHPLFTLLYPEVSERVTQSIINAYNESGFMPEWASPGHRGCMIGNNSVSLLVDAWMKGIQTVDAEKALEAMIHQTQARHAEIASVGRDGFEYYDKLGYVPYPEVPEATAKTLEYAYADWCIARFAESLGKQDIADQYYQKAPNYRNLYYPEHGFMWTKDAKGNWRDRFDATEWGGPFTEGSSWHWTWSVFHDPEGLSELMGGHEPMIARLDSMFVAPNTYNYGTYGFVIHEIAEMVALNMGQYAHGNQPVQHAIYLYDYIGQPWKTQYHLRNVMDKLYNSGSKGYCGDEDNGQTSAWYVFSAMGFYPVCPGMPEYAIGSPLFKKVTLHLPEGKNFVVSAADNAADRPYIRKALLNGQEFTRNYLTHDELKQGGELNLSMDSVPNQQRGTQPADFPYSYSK

Activity [1] [%]	Activity [2]	Activity [3]	Compound
4.3	0.0023%	100%	OC[C@H]1O[C@H](O[C@H]2[C@@H](O)[C@H](O)[C@@H](CO)O[C@@H]2O)[C@@H](O)[C@@H](O)[C@@H]1O
		inactive	OC[C@H]1O[C@H](O[C@@H]2[C@H](O)[C@@H](O)O[C@H](CO)[C@H]2O)[C@@H](O)[C@@H](O)[C@@H]1O
23	0.026%	0.12%	OC[C@H]1O[C@H](O[C@H]2[C@H](O)[C@H](O)[C@@H](O)O[C@@H]2CO)[C@@H](O)[C@@H](O)[C@@H]1O
21	inactive	inactive	OC[C@H]1O[C@H](OC[C@H]2O[C@H](O)[C@@H](O)[C@@H](O)[C@@H]2O)[C@@H](O)[C@@H](O)[C@@H]1O
